According to ChEMBL document CHEMBL1140289, “Studies on the apoptotic activity of natural and synthetic retinoids: discovery of a new class of synthetic terphenyls that potently support cell growth and inhibit apoptosis in neuronal and HL-60 cells” (2005):

Legend:
HL-60 [1] = experiment: Effect (1 uM) on HL-60 cell growth cultured for 72 hours in nonsupplemented serum-free medium; assay type: functional, Homo sapiens
HL-60 [2] = experiment: Effect (1 uM) on HL-60 cell apoptosis cultured for 72 hours in nonsupplemented serum-free medium; assay type: functional, Homo sapiens

SMILES | Activity (HL-60 [1]) | Apoptosis (HL-60 [2]) [%]
CC(=O)OC[C@H](OC(C)=O)/C(C)=C/C=C/C(C)=C/C=C1/C(C)=CCCC1(C)C | 129 no. of living cells (10E3) /mL | 40
COc1cc(/C=C/c2ccc(C(=O)O)cc2)cc(OC)c1OC | 166 no. of living cells (10E3) /mL | 36
CC(=O)OC[C@H](OC(C)=O)[C@@](C)(O)/C=C/C=C(C)/C=C/C1=C(C)CCCC1(C)C | 207 no. of living cells (10E3) /mL | 30
COc1cc(/C=C\c2ccc(C(=O)O)cc2)cc(OC)c1OC | 100 no. of living cells (10E3) /mL | 42
CC1=CCCC(C)(C)\C1=C/C=C(C)/C=C/C=C(\C)[C@@H](O)CO | 181 no. of living cells (10E3) /mL | 34
COc1cc(-c2cccc(-c3ccc(C(=O)O)cc3)c2)cc(OC)c1OC | 350 no. of living cells (10E3) /mL | 17
COc1cc(-c2ccc(-c3ccc(C(=O)O)cc3)cc2)cc(OC)c1OC | 300 no. of living cells (10E3) /mL | 18
CC1=C(/C=C/C(C)=C/C=C/[C@](C)(O)[C@@H](O)CO)C(C)(C)CCC1 | 149 no. of living cells (10E3) /mL | 37
CC1(C)CCC(C)(C)c2cc(/C=C/c3ccc(C(=O)O)cc3)ccc21 | 155 no. of living cells (10E3) /mL | 36
CC1(C)CCC(C)(C)c2cc(/C=C\c3ccc(C(=O)O)cc3)ccc21 | 100 no. of living cells (10E3) /mL | 43
CC(=O)CC[C@H](O)[C@@](C)(O)/C=C/C=C(C)/C=C/C1=C(C)CCCC1(C)C | 129 no. of living cells (10E3) /mL | 41
COc1cc(-c2ccccc2-c2ccc(C(=O)O)cc2)cc(OC)c1OC | 220 no. of living cells (10E3) /mL | 22
